Data published in article PMC11550483 (2024).

Molecular target: SARS2 M^pro (Severe acute respiratory syndrome coronavirus 2, UniProt P0DTD1, P3395H)
Type: biochemical, SARS-CoV-2

SMILES | % inhibition (20 µM) biochemical [%] | M^pro inhibition activity (in words)
CC1=C(C(=O)OC(C)C)C(c2ccc(F)cc2)C2=C(CC(c3cccs3)CC2=O)N1 (centres unmarked) [MWAC-0001729, CC(C)OC(=O)C1=C(C)NC2=C(C1c3ccc(F)cc3)C(=O)CC(C2)c4cccs4] | 0 | –
Cc1noc(N)c1C(=O)Nc1ccc(C(C)(C)C)cc1 [MWAC-0001886, Cc1noc(N)c1C(=O)Nc2ccc(cc2)C(C)(C)C] | 0 | –
COc1cc(OC)cc(C(=O)Nc2ccc(OC(C)C)cc2)c1 [MWAC-0001801, COc1cc(OC)cc(c1)C(=O)Nc2ccc(OC(C)C)cc2] | 5 | –
CC(C)c1cc(C(=O)Nc2ccc(Br)cc2)no1 [MWAC-0001748, CC(C)c1onc(c1)C(=O)Nc2ccc(Br)cc2] | 6 | –
CC1=C(C(=O)OC(C)C)C(c2ccsc2)C2=C(CC(c3cccs3)CC2=O)N1 (centres unmarked) [MWAC-0001728, CC(C)OC(=O)C1=C(C)NC2=C(C1c3ccsc3)C(=O)CC(C2)c4cccs4] | 0 | –
CN1C(=O)C(=Cc2cc(O)ccc2Br)C(=O)N(C)C1=O [MWAC-0001799, CN1C(=O)N(C)C(=O)C(=Cc2cc(O)ccc2Br)C1=O] | 5.42 | –
COc1ccc2ccccc2c1/C=C1/S/C(=N/c2ccccc2Cl)NC1=O [MWAC-0001721, COc1ccc2ccccc2c1\C=C/3\S\C(=N\c4ccccc4Cl)\NC3=O] | 6 | –
CCCCOC(=O)c1c(C)oc2ccc(NS(=O)(=O)c3ccc(OC)cc3)cc12 [MWAC-0001742, CCCCOC(=O)c1c(C)oc2ccc(NS(=O)(=O)c3ccc(OC)cc3)cc12] | 11 | –
C=CCN1C(=O)C(O)(CC(=O)c2ccc(C)cc2)c2cc(Br)ccc21 (centres unmarked) [MWAC-0001738, Cc1ccc(cc1)C(=O)CC2(O)C(=O)N(CC=C)c3ccc(Br)cc23] | 4.69 | –
CCOC(=O)c1[nH]c(C)c(C(=O)Nc2ccccc2SC)c1C [MWAC-0001737, CCOC(=O)c1[nH]c(C)c(C(=O)Nc2ccccc2SC)c1C] | 3.56 | –
CCN1C(=O)C(=O)c2cc(Cl)ccc21 [MWAC-0001750, CCN1C(=O)C(=O)c2cc(Cl)ccc12] | 10 | –
Cc1cc(S(=O)(=O)NC(C)C)ccc1OCC(=O)Nc1cccc([N+](=O)[O-])c1 [MWAC-0001775, CC(C)NS(=O)(=O)c1ccc(OCC(=O)Nc2cccc(c2)[N+](=O)[O-])c(C)c1] | 3.17 | –
Cc1ccc(Cc2cnc(NC(=O)c3cccs3)s2)cc1 [MWAC-0001882, Cc1ccc(Cc2cnc(NC(=O)c3cccs3)s2)cc1] | 0 | –
COc1ccccc1-c1cc(C(F)(F)F)nc(S(=O)(=O)CCCC(=O)Nc2c(F)cc(F)cc2Br)n1 [MWAC-0001726, COc1ccccc1c2cc(nc(n2)S(=O)(=O)CCCC(=O)Nc3c(F)cc(F)cc3Br)C(F)(F)F] | 43 | –
O=C1/C(=C/c2ccc3c(c2)OCO3)SC(=S)N1Cc1cccnc1 [MWAC-0001792, O=C1N(Cc2cccnc2)C(=S)S/C/1=C\c3ccc4OCOc4c3] | 14 | –
CSc1cccc(NC(=O)c2cnn3ccccc23)c1 [MWAC-0001883, CSc1cccc(NC(=O)c2cnn3ccccc23)c1] | 0 | –
O=C1OC(NC(=O)c2ccccc2)C(NC(=O)c2ccccc2)=C1Cl (centres unmarked) [MWAC-0001833, ClC1=C(NC(=O)c2ccccc2)C(NC(=O)c3ccccc3)OC1=O] | 4 | –
Cc1ccc2nc(NC(=O)c3ccc(S(C)(=O)=O)c([N+](=O)[O-])c3)sc2c1 [MWAC-0001829, Cc1ccc2nc(NC(=O)c3ccc(c(c3)[N+](=O)[O-])S(=O)(=O)C)sc2c1] | 64 | –

SMILES | % inhibition (20 µM) biochemical [%] | M^pro inhibition activity (in words)
C=CCN1C(=O)C(O)(CC(=O)c2ccc(Cl)s2)c2cc(Br)ccc21 (centres unmarked) [MWAC-0001788, OC1(CC(=O)c2ccc(Cl)s2)C(=O)N(CC=C)c3ccc(Br)cc13] | 7.53 | –
Cc1ccc(NC(=S)Nc2ccccc2)nc1 [MWAC-0001820, Cc1ccc(NC(=S)Nc2ccccc2)nc1] | 2.27 | –
COc1ccc(C2(C)CC(C)(C)N(C(C)=O)c3ccccc32)cc1 (centres unmarked) [MWAC-0001751, COc1ccc(cc1)C2(C)CC(C)(C)N(C(=O)C)c3ccccc23] | 4.45 | –
S=C(c1ccc(-c2cccc(Cl)c2)o1)N1CCCCC1 [MWAC-0001879, Clc1cccc(c1)c2oc(cc2)C(=S)N3CCCCC3] | 0 | –
Cc1cc(C(=O)COn2nnc3ccc(Cl)cc32)c(C)n1-c1ccc2c(c1)OCO2 [MWAC-0001837, Cc1cc(C(=O)COn2nnc3ccc(Cl)cc23)c(C)n1c4ccc5OCOc5c4] | 26 | –
Cc1cccc(OCCNC(=O)C(C)Cl)c1 (centres unmarked) | – | lost all activity
O=C(Nc1cc([N+](=O)[O-])ccc1F)c1cccc(F)c1 [MWAC-0001808, [O-][N+](=O)c1ccc(F)c(NC(=O)c2cccc(F)c2)c1] | 1.53 | –
O=C1NC(=O)C(=Cc2cc(O)ccc2Br)C(=O)N1 [MWAC-0001754, Oc1ccc(Br)c(C=C2C(=O)NC(=O)NC2=O)c1] | 21 | –
O=C(CCC(=O)Nc1ccc2c(c1)OCCO2)Nc1ccc(OCc2ccccc2)cc1 [MWAC-0001840, O=C(CCC(=O)Nc1ccc2OCCOc2c1)Nc3ccc(OCc4ccccc4)cc3] | 3 | –
COc1ccc(OC)c(C(=O)c2oc3ccccc3c2NC(=O)CCl)c1 [MWAC-0001832, COc1ccc(OC)c(c1)C(=O)c2oc3ccccc3c2NC(=O)CCl] | 85 | –
Cc1cc(I)cnc1NC(=S)NC(=O)c1ccco1 [MWAC-0001789, Cc1cc(I)cnc1NC(=S)NC(=O)c2occc2] | 2.41 | –
COc1ccc(C2=NN3C(C2)c2ccccc2OC3C(C)C)cc1 (centres unmarked) [MWAC-0001724, COc1ccc(cc1)C2=NN3C(Oc4ccccc4C3C2)C(C)C] | 7 | –
O=C(COc1ccccc1)Nc1scc(-c2ccccc2)c1C(=O)NCc1ccco1 [MWAC-0001777, O=C(COc1ccccc1)Nc2scc(c3ccccc3)c2C(=O)NCc4occc4] | 3.67 | –
O=C1NC(=O)C(=Cc2cc(Br)ccc2OCc2cccc(F)c2)C(=O)N1 [MWAC-0001793, Fc1cccc(COc2ccc(Br)cc2C=C3C(=O)NC(=O)NC3=O)c1] | 4 | –
CCOc1cc(S(=O)(=O)N2c3ccccc3CC2C)ccc1Cl (centres unmarked) [MWAC-0001761, CCOc1cc(ccc1Cl)S(=O)(=O)N2C(C)Cc3ccccc23] | 8 | –
CCc1ccc(C2CC(c3ccc(OC)c(OC)c3)=NN2C(C)=O)cc1 (centres unmarked) [MWAC-0001733, CCc1ccc(cc1)C2CC(=NN2C(=O)C)c3ccc(OC)c(OC)c3] | 7 | –
O=C1NC(=S)NC(=O)C1=Cc1cccc(OS(=O)(=O)c2ccc3ccccc3c2)c1 [MWAC-0001766, O=C1NC(=S)NC(=O)C1=Cc2cccc(OS(=O)(=O)c3ccc4ccccc4c3)c2] | 15 | –
